Where a name gives a salt, the structure may show the parent alone. Values belong to the compound of their own block, whether it stands above or below them.
Columns and labels:
[1] = test system: intraocular pressure (IOP); details: OAG-affected dogs; literature; cited from earlier work
human TRPV4 = target: T1, human TRPV4 (Homo sapiens, UniProt Q9HBA0); test: Fluorometric cell-based Ca2+ flux assay, HEK-293 cells stably overexpressing human TRPV4; details: for IC50: HEK-293 stably overexpressing human TRPV4, agonist GSK1016790A 30 nM
T1 construct: expressed in transfected cells
T1 sequence (Q9HBA0 whole entry): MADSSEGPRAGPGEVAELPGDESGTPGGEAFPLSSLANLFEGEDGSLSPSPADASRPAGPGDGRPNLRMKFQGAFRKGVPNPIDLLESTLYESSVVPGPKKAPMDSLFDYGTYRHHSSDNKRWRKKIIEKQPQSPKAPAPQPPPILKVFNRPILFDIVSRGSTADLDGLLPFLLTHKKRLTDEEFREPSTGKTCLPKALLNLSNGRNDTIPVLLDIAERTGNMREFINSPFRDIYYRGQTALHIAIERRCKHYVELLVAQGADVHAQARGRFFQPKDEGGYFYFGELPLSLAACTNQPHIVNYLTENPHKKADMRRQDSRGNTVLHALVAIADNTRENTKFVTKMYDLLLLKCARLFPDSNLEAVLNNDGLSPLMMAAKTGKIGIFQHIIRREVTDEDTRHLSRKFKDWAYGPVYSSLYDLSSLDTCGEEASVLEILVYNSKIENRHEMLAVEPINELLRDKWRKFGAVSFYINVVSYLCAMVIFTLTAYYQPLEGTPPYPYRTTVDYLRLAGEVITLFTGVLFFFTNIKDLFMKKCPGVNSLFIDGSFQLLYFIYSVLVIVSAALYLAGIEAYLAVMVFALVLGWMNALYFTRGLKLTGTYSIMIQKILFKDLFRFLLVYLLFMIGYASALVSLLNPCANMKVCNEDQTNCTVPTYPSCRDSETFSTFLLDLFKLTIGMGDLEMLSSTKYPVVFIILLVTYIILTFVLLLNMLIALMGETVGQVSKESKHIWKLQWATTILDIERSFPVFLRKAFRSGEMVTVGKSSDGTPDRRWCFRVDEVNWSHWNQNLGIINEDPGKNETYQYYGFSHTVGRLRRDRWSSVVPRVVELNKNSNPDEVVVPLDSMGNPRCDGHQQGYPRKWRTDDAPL
How it was run: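 HEK-293 cells stably overexpressing human TRPV4, Fluo 4-loaded, pre-incubated 30 min at 37° C with compound, then stimulated with 30 nM GSK1016790A (final). Max ΔF/s over 1 min, media-corrected, expressed relative to no-antagonist control; IC50 from ≥8 concentrations, ≥3 replicates.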

human TRPA1 = target: T2, human TRPA1 (Homo sapiens, UniProt O75762); test: Selectivity Ca2+ flux assay, TRPA1 stably over-expressed in HEK-293 cells; assay type: cell-based; details: agonist 2,4-ditert butylphenol (50 μM)
T2 construct: expressed in transfected cells
T2 sequence (O75762 whole entry): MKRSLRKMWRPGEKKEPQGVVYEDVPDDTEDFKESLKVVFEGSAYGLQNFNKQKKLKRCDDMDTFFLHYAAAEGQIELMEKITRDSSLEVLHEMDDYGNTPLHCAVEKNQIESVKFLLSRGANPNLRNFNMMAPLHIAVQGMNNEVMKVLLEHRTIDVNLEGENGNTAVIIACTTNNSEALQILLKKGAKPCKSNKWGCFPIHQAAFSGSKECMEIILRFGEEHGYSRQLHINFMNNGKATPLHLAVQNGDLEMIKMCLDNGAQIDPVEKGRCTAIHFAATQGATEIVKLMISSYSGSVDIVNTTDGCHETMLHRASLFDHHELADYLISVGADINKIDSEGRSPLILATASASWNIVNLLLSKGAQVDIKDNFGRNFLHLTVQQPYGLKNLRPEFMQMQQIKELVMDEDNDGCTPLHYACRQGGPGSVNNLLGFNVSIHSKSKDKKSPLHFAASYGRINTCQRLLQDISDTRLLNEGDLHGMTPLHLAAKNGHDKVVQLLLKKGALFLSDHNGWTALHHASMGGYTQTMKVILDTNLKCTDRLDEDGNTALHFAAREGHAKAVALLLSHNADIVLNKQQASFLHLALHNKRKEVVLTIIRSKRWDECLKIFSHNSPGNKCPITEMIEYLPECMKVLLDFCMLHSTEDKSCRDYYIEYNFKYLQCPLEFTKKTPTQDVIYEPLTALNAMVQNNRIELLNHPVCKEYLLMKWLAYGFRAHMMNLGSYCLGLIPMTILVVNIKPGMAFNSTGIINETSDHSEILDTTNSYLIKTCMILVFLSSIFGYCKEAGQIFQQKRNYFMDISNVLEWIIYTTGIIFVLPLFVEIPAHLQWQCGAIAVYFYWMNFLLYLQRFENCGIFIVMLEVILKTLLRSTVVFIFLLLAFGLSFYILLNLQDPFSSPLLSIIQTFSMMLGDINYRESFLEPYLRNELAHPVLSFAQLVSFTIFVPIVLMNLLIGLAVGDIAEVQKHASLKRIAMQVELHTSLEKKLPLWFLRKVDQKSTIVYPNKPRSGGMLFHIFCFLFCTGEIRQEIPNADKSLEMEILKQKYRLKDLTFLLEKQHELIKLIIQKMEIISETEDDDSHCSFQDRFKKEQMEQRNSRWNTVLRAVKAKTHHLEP
Experimental: (§1) To determine selectivity of the various test compounds for TRPV4, select compounds with activity in the TRPV4 fluorometric cell-based Ca^2+ flux assays were also tested for inhibition of human TRPA1 stably over-expressed in HEK-293 cells, TRPM8 stably over-expressed in HEK-293 cells, TRPV3 stably over-expressed in HEK-293 cells, and TRPV1 stably overexpressed in human lung epithelial (BEAS-2B) cells. The assays were conducted substantially as described above for HEK-293 cells that stably overexpress TRPV4, although for TRPV1, the BEAS-2B cells were maintained in LHC-9 media containing Geneticin (300 μg/mL) and were loaded with Fluo-4AM at room temperature. The agonist for TRPA1 was 2,4-ditert butylphenol (50 μM), for TRPM8 was icilin (50 μM), for TRPV3 was carvacrol (300 μM), and for TRPV1 was nonivamide (5 μM). All other aspects of the assay described above were the same.

TRPM8 = target: T3, TRPM8 (Homo sapiens, UniProt Q7Z2W7); test: Selectivity Ca2+ flux assay, TRPM8 stably over-expressed in HEK-293 cells; assay type: cell-based; details: agonist icilin (50 μM)
T3 construct: expressed in transfected cells
T3 sequence (Q7Z2W7 whole entry): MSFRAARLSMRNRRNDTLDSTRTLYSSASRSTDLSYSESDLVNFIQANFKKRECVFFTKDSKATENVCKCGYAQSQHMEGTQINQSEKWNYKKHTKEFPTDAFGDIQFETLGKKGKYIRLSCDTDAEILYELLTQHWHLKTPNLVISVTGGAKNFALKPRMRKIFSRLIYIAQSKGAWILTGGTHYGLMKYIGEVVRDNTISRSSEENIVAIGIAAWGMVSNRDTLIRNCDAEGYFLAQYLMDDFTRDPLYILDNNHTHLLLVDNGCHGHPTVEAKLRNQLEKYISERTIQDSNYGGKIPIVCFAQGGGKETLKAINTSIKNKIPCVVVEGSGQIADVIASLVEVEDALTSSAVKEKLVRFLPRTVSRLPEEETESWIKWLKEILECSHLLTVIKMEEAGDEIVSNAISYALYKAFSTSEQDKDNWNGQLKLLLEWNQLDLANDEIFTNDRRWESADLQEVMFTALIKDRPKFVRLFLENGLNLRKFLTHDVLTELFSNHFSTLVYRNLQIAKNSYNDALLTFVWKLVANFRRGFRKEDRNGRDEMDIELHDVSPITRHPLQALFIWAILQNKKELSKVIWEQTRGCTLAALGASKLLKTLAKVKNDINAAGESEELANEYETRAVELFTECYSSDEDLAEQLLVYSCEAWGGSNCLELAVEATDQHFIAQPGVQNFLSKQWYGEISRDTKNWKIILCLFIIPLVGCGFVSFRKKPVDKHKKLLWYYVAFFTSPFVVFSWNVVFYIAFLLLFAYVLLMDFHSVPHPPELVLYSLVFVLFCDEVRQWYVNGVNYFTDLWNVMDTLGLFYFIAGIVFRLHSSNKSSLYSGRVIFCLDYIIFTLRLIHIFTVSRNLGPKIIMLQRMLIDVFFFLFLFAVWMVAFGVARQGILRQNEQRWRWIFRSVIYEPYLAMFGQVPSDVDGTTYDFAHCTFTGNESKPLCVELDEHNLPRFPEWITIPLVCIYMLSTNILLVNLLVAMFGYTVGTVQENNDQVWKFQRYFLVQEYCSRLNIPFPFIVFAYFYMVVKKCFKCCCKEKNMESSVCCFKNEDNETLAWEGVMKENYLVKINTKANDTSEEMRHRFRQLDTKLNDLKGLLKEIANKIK
Experimental: as §1

TRPV3 = target: T4, TRPV3 (Homo sapiens, UniProt Q8NET8); test: Selectivity Ca2+ flux assay, TRPV3 stably over-expressed in HEK-293 cells; assay type: cell-based; details: agonist carvacrol (300 μM)
T4 construct: expressed in transfected cells
T4 sequence (Q8NET8 1-790): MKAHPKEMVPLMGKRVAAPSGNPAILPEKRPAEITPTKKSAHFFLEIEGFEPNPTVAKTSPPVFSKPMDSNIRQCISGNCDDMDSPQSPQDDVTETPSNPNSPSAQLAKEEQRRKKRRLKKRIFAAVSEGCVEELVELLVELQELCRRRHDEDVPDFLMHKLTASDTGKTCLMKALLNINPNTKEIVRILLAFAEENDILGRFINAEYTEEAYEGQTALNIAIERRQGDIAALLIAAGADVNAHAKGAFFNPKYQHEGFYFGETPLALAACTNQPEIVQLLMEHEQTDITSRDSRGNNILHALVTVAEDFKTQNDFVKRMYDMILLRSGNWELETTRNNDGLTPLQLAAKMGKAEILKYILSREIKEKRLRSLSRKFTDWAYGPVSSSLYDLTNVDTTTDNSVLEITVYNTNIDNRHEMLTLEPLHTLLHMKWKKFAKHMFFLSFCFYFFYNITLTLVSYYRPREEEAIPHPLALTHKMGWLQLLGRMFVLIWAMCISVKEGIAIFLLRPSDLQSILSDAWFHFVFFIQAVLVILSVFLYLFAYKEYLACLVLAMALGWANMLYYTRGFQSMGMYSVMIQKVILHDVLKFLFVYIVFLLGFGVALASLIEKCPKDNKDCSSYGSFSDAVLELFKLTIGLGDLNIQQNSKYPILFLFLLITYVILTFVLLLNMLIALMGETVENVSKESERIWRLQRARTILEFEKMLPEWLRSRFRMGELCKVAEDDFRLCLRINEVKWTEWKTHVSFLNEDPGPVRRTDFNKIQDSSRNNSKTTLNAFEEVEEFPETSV
Experimental: as §1

TRPV1 = target: T5, TRPV1 (Homo sapiens, UniProt Q8NER1); test: Selectivity Ca2+ flux assay, TRPV1 stably overexpressed in human lung epithelial (BEAS-2B) cells; assay type: cell-based; details: agonist nonivamide (5 μM)
T5 construct: expressed in transfected cells
T5 sequence (Q8NER1 whole entry): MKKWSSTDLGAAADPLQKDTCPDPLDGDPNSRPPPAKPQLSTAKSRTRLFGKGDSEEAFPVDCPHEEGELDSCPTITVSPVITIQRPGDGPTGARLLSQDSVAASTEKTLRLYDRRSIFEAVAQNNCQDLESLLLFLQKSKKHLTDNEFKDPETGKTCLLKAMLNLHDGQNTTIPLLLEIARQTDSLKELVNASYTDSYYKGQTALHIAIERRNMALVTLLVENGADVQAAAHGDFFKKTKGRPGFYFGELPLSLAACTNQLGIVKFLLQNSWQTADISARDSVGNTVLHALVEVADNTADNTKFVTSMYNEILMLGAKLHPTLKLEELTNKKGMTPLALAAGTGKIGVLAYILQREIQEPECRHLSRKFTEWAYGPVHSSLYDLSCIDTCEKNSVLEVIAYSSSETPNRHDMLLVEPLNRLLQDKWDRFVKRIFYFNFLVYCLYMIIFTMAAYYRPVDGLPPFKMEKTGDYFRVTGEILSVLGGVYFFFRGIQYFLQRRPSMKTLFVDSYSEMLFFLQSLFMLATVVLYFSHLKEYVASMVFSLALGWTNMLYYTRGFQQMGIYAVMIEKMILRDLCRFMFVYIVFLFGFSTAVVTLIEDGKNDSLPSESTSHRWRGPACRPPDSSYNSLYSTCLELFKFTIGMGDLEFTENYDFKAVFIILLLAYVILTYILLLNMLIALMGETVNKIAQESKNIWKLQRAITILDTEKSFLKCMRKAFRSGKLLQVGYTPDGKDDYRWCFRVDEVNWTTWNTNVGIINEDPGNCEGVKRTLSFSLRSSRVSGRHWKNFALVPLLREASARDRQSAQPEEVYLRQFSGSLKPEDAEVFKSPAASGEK
Experimental: as §1

[2] = test system: intraocular pressure (IOP); details: applied at 0.3-1.0 mM; Ryskamp et al., Sci Rep 2016; cited from earlier work
[3] = test system: intraocular pressure (IOP); test: In vivo tonometric IOP assay in microbead mouse model of ocular hypertension
[4] = test system: intraocular pressure (IOP); test: as above; details: FIG. 2 right panel; P<0.01 / P<0.001, two-way ANOVA
Experimental: FIG. 1 is a graph showing the effect that two concentrations of topical compound 11 (0.01% and 0.1%), 0.5% timolol, and control PBS had on IOP in the microbead (MB) mouse model of ocular hypertension (N=3 separate experiments, with 7-10 mice per experimental cohort). Error bars=±S.E.M. Ocular hypertension in the mouse model of primary open angle glaucoma (POAG) was induced with intracameral injection of polystyrene microbeads. Antagonist stock solutions (10 mM) were prepared in DMSO, the final concentrations were made in PBS diluted to <0.0001% DMSO.
FIG. 2 is a bar chart showing the cumulative data for pre-IOP elevation cohorts of mouse eyes (N≥3 separate experiments, with 7-10 mice per experimental cohort). Left panel: the IOP data are plotted as % of the control value of the timolol-treated eye cohort. Middle panel: MB injection elevated IOP in all experimental cohorts.
A tonometric assay was used to measured IOP changes in mice models of ocular hypertension over a period of weeks following topical application of the compounds.
To prepare the mice models of ocular hypertension, mice were anesthetized with an intraperitoneal (IP) injection of ketamine/xylazine (90 mg/10 mg/kg of body weight). Eye drops of 0.5% proparacaine hydrochloride with 1% tropicamide ophthalmic solution (Bausch & Lomb) were applied to numb and dilate the eyes of the mice. IOP was elevated in the ipsilateral eye by injecting 2 μl of polystyrene microbeads (7.8 μm FluoSpheres; Bangs Laboratories) with a Hamilton syringe into the anterior chamber over 60 seconds. The contralateral eye was injected with phosphate buffered saline (PBS).
A rebound tonometer was used to measure IOP at 1, 2, 6 and 10 hours post-injection after topical administration of Compounds 11 and 52 and timolol, a known medication for treatment of IOP associated with ocular hypertension and glaucoma. The IOP was determined from the means of 10 to 20 readings, following the protocol described in Ryskamp et al., Sci Rep 6:30583, 2016. […]

SMILES: CCN[C@H]1C[C@H](C)S(=O)(=O)c2sc(S(N)(=O)=O)cc21 [dorzolamide HCl]
IOP lowering [1]: 3.8-5.0 mm Hg

SMILES: Cc1c(C(=O)Nc2cccc(C(F)(F)F)c2)cc(-c2ccccc2)n1CCCN1CCOCC1 [HC067047, reference compound]
IOP in hypertensive mouse eyes [2]: lowered IOP
IOP levels in MB-treated eyes, intraperitoneal injection ([3]; FIG. 2 right panel, intraperitoneal): significantly lowered IOP levels

SMILES: CC(C)(C)NC[C@H](O)COc1nsnc1N1CCOCC1 [timolol, reference compound]
IOP levels in MB-treated eyes, topical application [4]: significantly lowered IOP levels
IOP after topical administration ([3]; mouse model of ocular hypertension, compounds 1 μM and 10 μM, timolol 0.5%, FIG. 1): lowered the IOP
protection of RGCs ([3]; mouse model of ocular hypertension, topical, compounds 1 μM and 10 μM, timolol 0.5%): protected RGCs

SMILES: N#Cc1cccc(OCC2(CO)CN(S(=O)(=O)c3ccc(Cl)cc3Cl)C2)c1 [Compound 89, 3-((1-((2,4-Dichlorophenyl)sulfonyl)-3-(hydroxymethyl)azetidin-3-yl)methoxy)benzonitrile]
IC50 (human TRPV4): 1000 to 3000 nM

SMILES: N#Cc1ccc(OCC2(CO)CN(S(=O)(=O)c3ccc(Cl)cc3F)C2)cc1F [Compound 78, 4-((1-((4-Chloro-2-fluorophenyl)sulfonyl)-3-(hydroxymethyl)azetidin-3-yl)methoxy)-2-fluorobenzonitrile]
IC50 (human TRPV4): 100 to 500 nM

SMILES: COc1cc(C#N)c(F)cc1OCC1(CO)CN(S(=O)(=O)c2ccccc2C#N)C1 [Compound 109, 4-((1-((2-Cyanophenyl)sulfonyl)-3-(hydroxymethyl)azetidin-3-yl)methoxy)-2-fluoro-5-methoxybenzonitrile]
IC50 (human TRPV4): 940 nM

The remaining lines, values ahead:

IC50 (human TRPV4): 0.6 nM
selectivity for TRPV4 versus TRPA1, TRPM8, TRPV3 and TRPV1 (human TRPV4; comparison of IC50 values): substantially more selective for TRPV4
IC50 (human TRPA1): 20700 nM
IC50 (TRPM8): 17800 nM
IC50 (TRPV3): > 100000 nM
IC50 (TRPV1): 6000 nM
SMILES: CNCC1(COc2ccc(C#N)c(F)c2)CN(S(=O)(=O)c2ccc(Cl)cc2Cl)C1 [Compound 16, 4-((1-((2,4-Dichlorophenyl)sulfonyl)-3-((methylamino)methyl)azetidin-3-yl)methoxy)-2-fluorobenzonitrile hydrochloride]

IC50 (human TRPV4): 0.2 to 0.6 nM
IC50 (human TRPA1): > 35500 nM
IC50 (TRPM8): 25400 nM
IC50 (TRPV3): > 50000 nM
IC50 (TRPV1): 5300 nM
SMILES: N#Cc1ccc(OCC2(CNCCO)CN(S(=O)(=O)c3ccc(Cl)cc3Cl)C2)cc1F [Compound 17, 4-((1-((2,4-Dichlorophenyl)sulfonyl)-3-(((2-hydroxyethyl)amino)methyl)azetidin-3-yl)methoxy)-2-fluorobenzonitrile]

IC50 (human TRPV4): 80 nM
SMILES: N#Cc1ccc(OCC2(CO)CN(S(=O)(=O)c3ccc(OC(F)(F)F)cc3C#N)C2)cc1F [Compound 107, 4-((1-((2-Cyano-4-trifluoromethoxyphenyl)sulfonyl)-3-(hydroxymethyl)azetidin-3-yl)methoxy)-2-fluorobenzonitrile]

IC50 (human TRPV4): 21 nM
SMILES: N#Cc1ccc(OCC2(COS(=O)(=O)CCN)CN(S(=O)(=O)c3ccc(Cl)cc3Cl)C2)cc1F [Compound 15, (3-((4-Cyano-3-fluorophenoxy)methyl)-1-((2,4-dichlorophenyl)sulfonyl)azetidin-3-yl)methyl 2-aminoethane-1-sulfonate trifluoroacetate salt]

IC50 (human TRPV4): 270 nM
SMILES: N#Cc1ccc(OCC2(CO)CN(S(=O)(=O)c3ccc(Cl)cc3Cl)C2)cc1 [Compound 3, 4-((1-((2,4-Dichlorophenyl)sulfonyl)-3-(hydroxymethyl)azetidin-3-yl)methoxy)benzonitrile]

IC50 (human TRPV4): 5.2 nM
SMILES: N#Cc1ccc(OCC2(CNCC3CCOCC3)CN(S(=O)(=O)c3ccc(Cl)cc3Cl)C2)cc1F [Compound 29, 4-((1-((2,4-Dichlorophenyl)sulfonyl)-3-((((tetrahydro-2H-pyran-4-yl)methyl)amino)methyl)azetidin-3-yl)methoxy)-2-fluorobenzonitrile hydrochloride]

From patent US20230026696A1, “TRPV4 RECEPTOR LIGANDS” (UNIVERSITY OF UTAH RESEARCH FOUNDATION, priority 2019, published 2023)
